{"source": "ChEMBL document CHEMBL5154828", "about": "(J Med Chem, 2022)", "key": {"Estrogen receptor [1]": {"target": "T1, Estrogen receptor (Homo sapiens, UniProt P03372)", "T1 sequence (P03372 whole entry)": "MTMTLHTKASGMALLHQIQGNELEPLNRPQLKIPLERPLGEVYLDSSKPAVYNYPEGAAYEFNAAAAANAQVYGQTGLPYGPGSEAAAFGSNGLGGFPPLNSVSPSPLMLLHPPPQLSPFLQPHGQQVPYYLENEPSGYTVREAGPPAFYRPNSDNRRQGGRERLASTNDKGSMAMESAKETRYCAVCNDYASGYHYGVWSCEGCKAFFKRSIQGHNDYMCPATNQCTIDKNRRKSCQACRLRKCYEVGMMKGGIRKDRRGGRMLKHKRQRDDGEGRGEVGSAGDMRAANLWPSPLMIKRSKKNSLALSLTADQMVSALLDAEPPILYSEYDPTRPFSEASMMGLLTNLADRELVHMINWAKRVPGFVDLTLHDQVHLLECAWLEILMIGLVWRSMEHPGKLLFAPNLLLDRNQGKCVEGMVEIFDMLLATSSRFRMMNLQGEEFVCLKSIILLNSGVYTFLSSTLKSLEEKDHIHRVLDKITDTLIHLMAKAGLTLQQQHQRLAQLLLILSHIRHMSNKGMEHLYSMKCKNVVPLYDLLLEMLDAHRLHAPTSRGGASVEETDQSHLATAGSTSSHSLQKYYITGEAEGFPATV", "experiment": "Induction of ERalpha degradation in human MCF7 cells incubated for 24 hrs by Western blot analysis", "type": "cell-based"}, "MCF7": {"tested_on": "MCF7", "experiment": "Antiproliferative activity against human MCF7 cells assessed as inhibition of cell growth measured after 6 days by cell titre glo luminescence assay", "details": "MCF7, 144 h"}, "[2]": {"target": "Voltage-gated inwardly rectifying potassium channel KCNH2 (Homo sapiens, UniProt Q12809)", "sequence (Q12809 whole entry)": "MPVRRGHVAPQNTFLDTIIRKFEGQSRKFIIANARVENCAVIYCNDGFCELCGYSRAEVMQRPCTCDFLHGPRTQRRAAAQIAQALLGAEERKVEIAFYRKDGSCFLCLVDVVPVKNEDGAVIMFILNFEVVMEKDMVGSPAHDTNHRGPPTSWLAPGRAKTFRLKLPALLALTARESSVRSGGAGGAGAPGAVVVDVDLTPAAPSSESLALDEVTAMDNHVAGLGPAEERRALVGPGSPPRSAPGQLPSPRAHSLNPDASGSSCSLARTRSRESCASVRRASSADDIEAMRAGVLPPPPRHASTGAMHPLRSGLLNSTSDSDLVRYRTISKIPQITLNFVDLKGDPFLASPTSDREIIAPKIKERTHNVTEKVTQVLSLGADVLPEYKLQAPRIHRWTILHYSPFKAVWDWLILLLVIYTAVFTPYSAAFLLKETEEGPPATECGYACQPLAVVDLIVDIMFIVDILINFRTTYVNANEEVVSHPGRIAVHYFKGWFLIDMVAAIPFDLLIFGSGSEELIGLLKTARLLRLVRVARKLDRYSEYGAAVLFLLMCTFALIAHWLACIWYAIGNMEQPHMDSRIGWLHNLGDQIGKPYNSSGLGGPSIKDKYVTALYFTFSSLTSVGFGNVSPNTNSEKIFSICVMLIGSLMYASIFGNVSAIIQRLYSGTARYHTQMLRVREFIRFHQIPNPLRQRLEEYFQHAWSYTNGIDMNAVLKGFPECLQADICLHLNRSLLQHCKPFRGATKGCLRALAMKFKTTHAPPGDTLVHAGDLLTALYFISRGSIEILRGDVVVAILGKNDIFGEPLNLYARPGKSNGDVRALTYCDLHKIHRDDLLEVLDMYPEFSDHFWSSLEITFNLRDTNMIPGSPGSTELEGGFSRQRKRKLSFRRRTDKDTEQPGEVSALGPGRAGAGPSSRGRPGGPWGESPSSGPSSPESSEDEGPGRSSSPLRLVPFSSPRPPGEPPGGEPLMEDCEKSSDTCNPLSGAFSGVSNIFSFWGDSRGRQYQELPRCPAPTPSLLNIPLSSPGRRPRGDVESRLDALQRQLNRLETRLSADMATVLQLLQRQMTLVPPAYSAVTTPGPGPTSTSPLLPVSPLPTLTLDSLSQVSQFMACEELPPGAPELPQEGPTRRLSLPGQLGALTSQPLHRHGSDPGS", "experiment": "Inhibition of human ERG potassium channel expressed in CHO cells by patch-clamp assay", "type": "toxicity, cell-based"}, "Estrogen receptor [3]": {"target": "T1, Estrogen receptor", "experiment": "Antagonist activity at ERalpha expressed in HEK293/Gal4 cells incubated for 24 hrs in presence of estradiol by luciferase reporter gene assay", "type": "cell-based"}, "Estrogen receptor beta": {"target": "Estrogen receptor beta (Homo sapiens, UniProt Q92731)", "sequence (Q92731 whole entry, the tested form may be a part)": "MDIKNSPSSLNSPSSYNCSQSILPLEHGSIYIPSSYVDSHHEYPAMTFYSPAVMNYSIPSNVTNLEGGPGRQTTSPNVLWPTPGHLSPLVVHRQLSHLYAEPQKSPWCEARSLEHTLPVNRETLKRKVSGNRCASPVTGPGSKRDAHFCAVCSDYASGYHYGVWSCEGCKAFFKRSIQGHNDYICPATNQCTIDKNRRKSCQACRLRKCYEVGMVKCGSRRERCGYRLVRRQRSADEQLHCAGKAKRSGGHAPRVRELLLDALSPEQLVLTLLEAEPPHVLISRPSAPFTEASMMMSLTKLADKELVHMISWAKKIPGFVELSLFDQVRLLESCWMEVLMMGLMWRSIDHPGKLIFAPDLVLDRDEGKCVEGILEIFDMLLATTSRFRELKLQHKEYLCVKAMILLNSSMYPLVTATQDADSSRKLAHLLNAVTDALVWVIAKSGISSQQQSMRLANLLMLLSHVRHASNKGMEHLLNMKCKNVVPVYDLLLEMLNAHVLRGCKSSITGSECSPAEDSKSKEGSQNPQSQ", "experiment": "Antagonist activity at ERbeta expressed in HEK293/Gal4 cells incubated for 24 hrs in presence of di-arylpropionitrile by luciferase reporter gene assay"}}, "data": [{"smiles": "CC(F)(F)c1cc(Cl)ccc1-c1sc2c(ccc3[nH]ncc32)c1Oc1ccc(N[C@@H]2CCN(CCCF)C2)cc1", "values": [{"measurement": "EC50", "setting": "Estrogen receptor [1]", "result": 1, "unit": "nM"}, {"measurement": "IC50", "setting": "MCF7", "result": 0.6, "unit": "nM"}]}, {"smiles": "CC(F)(F)c1cc(F)ccc1-c1sc2c(ccc3[nH]ncc32)c1Oc1ccc(NC2CN(CCCF)C2)c(F)c1", "values": [{"measurement": "IC50", "setting": "[2]", "result": 27500, "unit": "nM"}, {"measurement": "EC50", "setting": "Estrogen receptor [1]", "result": 1.3, "unit": "nM"}, {"measurement": "IC50", "setting": "MCF7", "result": 0.8, "unit": "nM"}, {"measurement": "IC50", "setting": "Estrogen receptor [3]", "result": 1.1, "unit": "nM"}]}, {"smiles": "CC(F)(F)c1cc(F)ccc1-c1sc2c(ccc3[nH]ncc32)c1Oc1ccc(OC2CN(CCCF)C2)c(F)c1", "values": [{"measurement": "EC50", "setting": "Estrogen receptor [1]", "result": 1.3, "unit": "nM"}, {"measurement": "IC50", "setting": "MCF7", "result": 0.8, "unit": "nM"}, {"measurement": "IC50", "setting": "Estrogen receptor [3]", "result": 1, "unit": "nM"}]}, {"smiles": "CC(F)(F)c1cc(Cl)ccc1-c1sc2cc(C(=O)O)ccc2c1Oc1ccc(OC2CN(CCCF)C2)cc1", "values": [{"measurement": "EC50", "setting": "Estrogen receptor [1]", "result": 3.9, "unit": "nM"}, {"measurement": "IC50", "setting": "MCF7", "result": 34.7, "unit": "nM"}]}, {"smiles": "CC(F)(F)c1cc(Cl)ccc1-c1sc2c(ccc3[nH]ncc32)c1Oc1ccc(O[C@@H]2CCN(CCCF)C2)cc1", "values": [{"measurement": "EC50", "setting": "Estrogen receptor [1]", "result": 0.7, "unit": "nM"}, {"measurement": "IC50", "setting": "MCF7", "result": 2.6, "unit": "nM"}]}, {"smiles": "Oc1cccc(-c2sc3c(ccc4[nH]ncc43)c2Oc2ccc(OCCN3CC(CF)C3)cc2)c1", "values": [{"measurement": "IC50", "setting": "MCF7", "result": "> 1000", "unit": "nM"}]}, {"smiles": "FCCCN1CC(Oc2ccc(Oc3c(-c4ccc(F)cc4CC(F)(F)F)sc4c3ccc3[nH]ncc34)cc2F)C1", "values": [{"measurement": "IC50", "setting": "[2]", "result": "> 40000", "unit": "nM"}]}, {"smiles": "CC(F)(F)c1cc(Cl)ccc1-c1sc2cc(C(=O)O)ccc2c1Oc1ccc(OCCN2CC(CF)C2)cc1", "values": [{"measurement": "EC50", "setting": "Estrogen receptor [1]", "result": 2.6, "unit": "nM"}, {"measurement": "IC50", "setting": "MCF7", "result": 4.4, "unit": "nM"}]}, {"smiles": "CC(F)(F)c1cc(F)ccc1-c1sc2c(ccc3[nH]ncc32)c1Oc1ccc(S(=O)(=O)CCN2CC(CF)C2)cc1", "values": [{"measurement": "EC50", "setting": "Estrogen receptor [1]", "result": "> 1000", "unit": "nM"}, {"measurement": "IC50", "setting": "MCF7", "result": 5.9, "unit": "nM"}]}, {"smiles": "CC(F)(F)c1cc(F)ccc1-c1sc2c(ccc3[nH]ncc32)c1Oc1ccc(CCN2CC(CF)C2)cc1", "values": [{"measurement": "IC50", "setting": "MCF7", "result": 14.7, "unit": "nM"}]}, {"smiles": "CC(F)(F)c1cc(F)c(F)cc1-c1sc2c(ccc3[nH]ncc32)c1Oc1ccc(OC2CN(CCCF)C2)cc1", "values": [{"measurement": "EC50", "setting": "Estrogen receptor [1]", "result": 3.4, "unit": "nM"}, {"measurement": "IC50", "setting": "MCF7", "result": 1.6, "unit": "nM"}, {"measurement": "IC50", "setting": "Estrogen receptor [3]", "result": 2.5, "unit": "nM"}]}, {"smiles": "CC(F)(F)c1cc(F)ccc1-c1sc2cc(B(O)O)ccc2c1Oc1ccc(/C=C/C(=O)O)cc1", "values": [{"measurement": "IC50", "setting": "MCF7", "result": 23.9, "unit": "nM"}]}, {"smiles": "CC(F)(F)c1cc(F)ccc1-c1sc2c(ccc3[nH]ncc32)c1Oc1ccc(OCCN2CC(CC#N)C2)cc1", "values": [{"measurement": "EC50", "setting": "Estrogen receptor [1]", "result": 0.4, "unit": "nM"}, {"measurement": "IC50", "setting": "MCF7", "result": 2.4, "unit": "nM"}]}, {"smiles": "COc1cc(Oc2c(-c3ccc(F)cc3CC(F)(F)F)sc3c2ccc2[nH]ncc23)ccc1OC1CN(CCCF)C1", "values": [{"measurement": "EC50", "setting": "Estrogen receptor [1]", "result": 1.8, "unit": "nM"}, {"measurement": "IC50", "setting": "MCF7", "result": 0.6, "unit": "nM"}, {"measurement": "IC50", "setting": "Estrogen receptor [3]", "result": 0.9, "unit": "nM"}]}, {"smiles": "CC(F)(F)c1cc(F)c(F)cc1-c1sc2c(ccc3[nH]ncc32)c1Oc1ccc(NC2CN(CCCF)C2)cc1", "values": [{"measurement": "IC50", "setting": "[2]", "result": 7400, "unit": "nM"}]}, {"smiles": "CC(F)(F)c1cc(F)ccc1-c1sc2c(ccc3[nH]ncc32)c1Oc1ccc(/C=C/C(=O)O)cc1", "values": [{"measurement": "IC50", "setting": "MCF7", "result": 26.6, "unit": "nM"}]}, {"smiles": "CC(c1cc(F)ccc1-c1sc2c(ccc3[nH]ncc32)c1Oc1ccc(OC2CN(CCCF)C2)cc1)C(F)(F)F", "note": "(stereo not given)", "values": [{"measurement": "EC50", "setting": "Estrogen receptor [1]", "result": 2.5, "unit": "nM"}, {"measurement": "IC50", "setting": "MCF7", "result": 2.2, "unit": "nM"}]}, {"smiles": "FCC1CN(CCOc2ccc(Oc3c(-c4ccc(C(F)(F)F)cc4F)sc4c3ccc3[nH]ncc34)cc2)C1", "values": [{"measurement": "IC50", "setting": "MCF7", "result": 148, "unit": "nM"}]}, {"smiles": "FCC1CN(CCOc2ccc(Oc3c(-c4ccc(F)cc4C4CC4)sc4c3ccc3[nH]ncc34)cc2)C1", "values": [{"measurement": "IC50", "setting": "MCF7", "result": 8.8, "unit": "nM"}]}, {"smiles": "CC(F)(F)c1cc(F)ccc1-c1sc2c(ccc3[nH]ncc32)c1-c1ccc(OCCN2CC(CF)C2)cc1", "values": [{"measurement": "IC50", "setting": "MCF7", "result": "> 1000", "unit": "nM"}]}, {"smiles": "COc1cc(Oc2c(-c3cc(F)c(F)cc3C(C)(F)F)sc3c2ccc2[nH]ncc23)ccc1NC1CN(CCCF)C1", "values": [{"measurement": "IC50", "setting": "[2]", "result": 15600, "unit": "nM"}, {"measurement": "EC50", "setting": "Estrogen receptor [1]", "result": 2.6, "unit": "nM"}, {"measurement": "IC50", "setting": "MCF7", "result": 1.7, "unit": "nM"}, {"measurement": "IC50", "setting": "Estrogen receptor [3]", "result": 2.5, "unit": "nM"}]}, {"smiles": "COc1cc(Oc2c(-c3cc(F)c(F)cc3C(C)(F)F)sc3c2ccc2[nH]ncc23)ccc1OC1CN(CCCF)C1", "values": [{"measurement": "EC50", "setting": "Estrogen receptor [1]", "result": 3, "unit": "nM"}, {"measurement": "IC50", "setting": "MCF7", "result": 1.2, "unit": "nM"}, {"measurement": "IC50", "setting": "Estrogen receptor [3]", "result": 1.4, "unit": "nM"}]}, {"smiles": "CC(F)(F)c1cc(F)ccc1-c1sc2cc(B(O)O)ccc2c1Oc1ccc(OCCN2CC(CC#N)C2)cc1", "values": [{"measurement": "IC50", "setting": "MCF7", "result": 2.7, "unit": "nM"}]}, {"smiles": "FCCCN1CC(Oc2ccc(Oc3c(-c4ccc(F)cc4C4(F)CC4)sc4c3ccc3[nH]ncc34)cc2)C1", "values": [{"measurement": "IC50", "setting": "MCF7", "result": 5.3, "unit": "nM"}]}, {"smiles": "Cc1cc(C(F)(F)F)ncc1-c1sc2c(ccc3[nH]ncc32)c1Oc1ccc(OCCN2CC(CF)C2)cc1", "values": [{"measurement": "IC50", "setting": "MCF7", "result": 623, "unit": "nM"}]}, {"smiles": "O=C(O)c1ccc2c(c1)CCCC(c1ccc(Cl)cc1Cl)=C2c1ccc(O[C@H]2CCN(CCCF)C2)cc1", "note": "[AMCENESTRANT]", "values": [{"measurement": "IC50", "setting": "MCF7", "result": 9.1, "unit": "nM"}, {"measurement": "IC50", "setting": "Estrogen receptor beta", "result": 8.6, "unit": "nM"}]}, {"smiles": "CC(F)(F)c1cc(F)ccc1-c1sc2c(ccc3[nH]ncc32)c1Oc1ccc(/C=C/CN2CC(CF)C2)cc1", "values": [{"measurement": "IC50", "setting": "MCF7", "result": 7.9, "unit": "nM"}]}, {"smiles": "CC(F)(F)c1cc(F)ccc1-c1sc2c(ccc3[nH]ncc32)c1Oc1c(F)cc(OCCN2CC(CF)C2)cc1F", "values": [{"measurement": "IC50", "setting": "MCF7", "result": 15.1, "unit": "nM"}]}]}
